The record followed here is patent US5798373A, “Tri-substituted phenyl derivatives useful as PDE IV inhibitors” (Celltech Therapeutics, Limited, priority 1995, dated 1998).

For data set [1], the target named is T1, Recombinant Human PDE IVA (Homo sapiens, UniProt P27815).
T1 construct: made in house; host or cells: yeast (inducible vector)
The data set is described as follows: Isolated recombinant human PDE IVA enzyme inhibition. The format is biochemical. Conditions: 0.1 μM [^3 H]-cAMP, pH 7.5, 30° C.
Procedure: Isolated Recombinant Human PDE IVA Enzyme
The enzymes were purified to isoenzyme homogeneity using standard chromatographic techniques.
Phosphodiesterase activity was assayed as follows. The reaction was conducted in 150 μl of standard mixture containing (final concentrations): 50 mM 2-[[tris(hydroxymethyl)methyl]amino]-1-ethanesulphonic acid (TES) --NaOH buffer (pH 7.5), 10 mM MgCl2, 0.1 μM [^3 H]-cAMP and vehicle or various concentrations of the test compounds. The reaction was initiated by addition of enzyme and conducted at 30° C. for between 5 to 30 min. The reaction was terminated by addition of 50 μl 2% trifluoroacetic acid containing [^14 C]-5'AMP for determining recovery of the product. An aliquot of the sample was then applied to a column of neutral alumina and the [^3 H]-cAMP eluted with 10 ml 0.1 TES-NaOH buffer (pH8). The [^3 H]-5'-AMP product was eluted with 2 ml 2M NaOH into a scintillation vial containing 10 ml of scintillation cocktail. Recovery of [^3 H]-5'AMP was determined using the [^14 C]-5'AMP and all assays were conducted in the linear range of the reaction. Results were expressed as IC50 values.

Data set [2] can be described thus: Rat hepatocyte metabolism (metabolic stability). The format is in vitro ADME. Particulars: rat hepatocytes, after 3 h, mass spectroscopy; read-out: percentage of compound remaining. The protocol: (§1) 2. Rat Hepatocyte Metabolism
(§2) The quantity of compound remaining after a fixed period of time was then determined using mass spectroscopy.
(§3) Thus in one such test the compound of Example 1 was compared with a related compound particularly described in International Patent Specification No. WO94/14742 in which the 4-fluorobenzylurea group is replaced by a hydrogen atom (i.e. (L^1)n Ar' above is a hydrogen atom). After 3 h the percentage of each compound remaining was: […]

The subject of another data set is rat hepatocytes. Nature of the data set: Rat hepatocyte metabolism (metabolic stability). Particulars: after 3 h. The format is in vitro ADME. The protocol:
as §1, §2, §3

The structures appear in SMILES notation. Counter-ions that a name gives are not always drawn.

As usually defined, the IC50 is the midpoint of a concentration-inhibition curve. By amount remaining is commonly meant the share of the starting amount still present when the sample was taken.

T1 sequence (P27815 whole entry): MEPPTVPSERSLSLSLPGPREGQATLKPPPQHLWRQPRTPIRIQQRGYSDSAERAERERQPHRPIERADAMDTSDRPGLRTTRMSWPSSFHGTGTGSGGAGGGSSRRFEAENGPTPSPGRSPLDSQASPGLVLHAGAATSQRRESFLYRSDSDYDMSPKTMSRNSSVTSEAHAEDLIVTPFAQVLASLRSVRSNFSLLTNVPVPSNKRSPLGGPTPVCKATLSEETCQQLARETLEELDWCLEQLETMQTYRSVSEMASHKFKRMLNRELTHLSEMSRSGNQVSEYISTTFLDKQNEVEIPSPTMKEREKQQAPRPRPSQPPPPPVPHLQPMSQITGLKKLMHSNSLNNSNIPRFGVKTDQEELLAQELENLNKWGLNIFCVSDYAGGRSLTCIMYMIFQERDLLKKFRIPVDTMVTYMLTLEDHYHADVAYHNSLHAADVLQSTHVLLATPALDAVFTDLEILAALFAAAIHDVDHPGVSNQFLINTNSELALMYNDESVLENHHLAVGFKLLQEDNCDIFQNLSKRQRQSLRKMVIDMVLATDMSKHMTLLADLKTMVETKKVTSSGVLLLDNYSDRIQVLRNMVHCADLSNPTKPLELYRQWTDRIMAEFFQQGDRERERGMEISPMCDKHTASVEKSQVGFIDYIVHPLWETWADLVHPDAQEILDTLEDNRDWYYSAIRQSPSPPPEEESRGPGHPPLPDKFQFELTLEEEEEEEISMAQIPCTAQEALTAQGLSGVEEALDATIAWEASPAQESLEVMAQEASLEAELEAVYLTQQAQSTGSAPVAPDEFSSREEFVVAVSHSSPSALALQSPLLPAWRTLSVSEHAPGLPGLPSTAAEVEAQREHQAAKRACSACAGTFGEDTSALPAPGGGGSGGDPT

Take `COc1ccc([C@H](Cc2ccncc2)c2ccc(NS(=O)(=O)Cc3ccccc3)cc2)cc1OC1CCCC1` [Example 2, (R)-4-{2-(3-cyclopentyloxy-4-methoxyphenyl)-2-[4-(benzylsulphonylamino)phenyl]ethyl}pyridine hydrochloride]: in data set [1], the IC50 was 7.5 nM.

As to `COc1ccc([C@H](Cc2ccncc2)c2ccccc2)cc1OC1CCCC1` [WO94/14732 comparison compound, reference compound], the share remaining at 3 h in data set [2] turned out to be 6%. The “extent of metabolism (in words)” value with rat hepatocytes was “extensively metabolised”.

In the case of `COc1ccc([C@H](Cc2ccncc2)c2ccc(NC(=O)NCc3ccc(F)cc3)cc2)cc1OC1CCCC1` [Example 1, (R)-N-[4-{1-(3-cyclopentyloxy-4-methoxyphenyl)-2-(4-pyridyl)ethyl}-phenyl]-N'-(4-fluorobenzyl) urea], in data set [1], the IC50 is 23 nM. In data set [2], the amount remaining at 3 h was over 80%. In the data set with rat hepatocytes (mass spectroscopy, listed as compound of the invention, 180 min), the “percentage of compound remaining” value is “over 80%”.
